For series [1], the system named is ABT-263-resistant CEM (CEM-R). As to the kind of experiment: Apoptotic cell death by DNA fragmentation, ABT-263-resistant CEM. In kind it is cell-based, human. To be noted: CEM treated with increasing ABT-263 up to 1 μM, 2 months. The protocol: (§1) Wogonin (BIOTREND Chemicals AG, Wangen, Switzerland), apigenin, chrysin, luteolin and baicalein (Sigma, St. Louis, USA) were solved in dimethyl sulfoxide (DMSO; Roth, Karlsruhe, Germany) at a stock concentration of 50 mM. Cells were treated with different concentrations of different flavones or ABT-263 (Selleck Chemicals, Houston, USA) for 24 to 48 h. Apoptotic cell death was examined by analysis of DNA fragmentation as previously described 23 (Fas et al.,2006, Blood 108: 3700-6). Results are presented as % specific DNA fragmentation using the formula: (percentage of experimental apoptosis-percentage of spontaneous apoptosis)/(100-percentage of spontaneous apoptosis)×100.

Series [2] has as its system breast cancer cell line MCF-7. As to the kind of experiment: Apoptotic cell death by DNA fragmentation, MCF-7. In kind it is cell-based, human. The following applies: 1 μM ABT-263, 48 h. The protocol:
(§2) The human malignant cell lines used in this study are the T cell leukemic cell lines CEM, Molt-4 and Jurkat (J16), the HL cell line KM-H2, the cervix adenocarcinoma cell line HeLa, the melanoma cell line A375, the hepatocellular carcinoma cell line HepG2, the pancreatic carcinoma cell line MiaPaca, the breast cancer cell line MCF-7, the prostatic cancer cell line PC3 and the colon carcinoma cell line HCT116. All cells were cultured in RPMI 1640 or DMEM medium (GIBCO laboratories, Grand Island, USA), supplemented with 10% FCS, 100 Units/ml penicillin (GIBCO), 100 μg/m1 streptomycin (GIBCO) and 2 mM L-glutamine (GIBCO) at 37° C. and 5%. Wogonin (BIOTREND Chemicals AG, Wangen, Switzerland), apigenin, chrysin, luteolin and baicalein (Sigma, St. Louis, USA) were solved in dimethyl sulfoxide (DMSO; Roth, Karlsruhe, Germany) at a stock concentration of 50 mM. Cells were treated with different concentrations of different flavones or ABT-263 (Selleck Chemicals, Houston, USA) for 24 to 48 h. Apoptotic cell death was examined by analysis of DNA fragmentation as previously described 23 (Fas et al.,2006, Blood 108: 3700-6). Results are presented as % specific DNA fragmentation using the formula: (percentage of experimental apoptosis-percentage of spontaneous apoptosis)/(100-percentage of spontaneous apoptosis)×100.

Series [3] deals with hepatocellular carcinoma cell line HepG2. The series can be described thus: Apoptotic cell death by DNA fragmentation, HepG2. In kind it is cell-based, human. To be noted: HepG3 (so in the source); 1 μM ABT-263, 48 h. The protocol:
as §2

In series [4] the test system is ABT-263-resistant Jurkat (Jurkat-R). The series can be described thus: Apoptotic cell death by DNA fragmentation, ABT-263-resistant Jurkat. To be noted: Jurkat treated with increasing ABT-263 up to 10 μM, 3 months. In kind it is cell-based, human. The protocol:
as §1

The subject of series [5] is colon carcinoma cell line HCT116. The series can be described thus: Apoptotic cell death by DNA fragmentation, HCT116. Format: cell-based, human. The following applies: 1 μM ABT-263, 48 h. The protocol: as §2
The subject of another series is melanoma cell line A375. The series can be described thus: Apoptotic cell death by DNA fragmentation, A375. Format: cell-based, human. The following applies: 1 μM ABT-263, 48 h. The procedure:
as §2

In the next series the test system is human ALL RS4;11. The following applies: 100 mg/kg/day; cited from earlier work.
Another series deals with CEM tumors. As to the kind of experiment: CEM xenograft in immunodeficient mice. Format: in vivo. The following applies: Rag2-/-/Il2rg-/- mice, s.c. CEM; ABT-263 50 mg/kg p.o. and/or wogonin 50 mg/kg i.p. The protocol: Immunodeficient mice (Rag2−/−/II2rg−/−) were implanted subcutaneously in the dorsal flank region with CEM (5×10^7 cells). After the tumors reached to approximate 35 mm3, tumor size matched mice were treated with ABT-263 (50 mg/kg, once in each third or fourth day) in the presence or absence of 50 mg/kg wogonin. ABT-263 was formulated according to the protocol previously described 9 and administered p.o. Wogonin dissolved in DMSO was diluted in sunflower oil and administered i.p. For combination studies, ABT-263 was given 2 h before wogonin. The control group was treated in an analogous manner with the vehicle. The tumor size was measured with a micrometer caliper two to three times weekly and the tumor volume (V) was calculated by the formula V=(width2×length)/2. All protocols using and maintaining animals were approved by the German Animal Protection Authority (Office Regierungsprasidium Karlsruhe) in Karlsruhe.

Series [6] concerns pancreatic carcinoma cell line MiaPaca. As to the kind of experiment: Apoptotic cell death by DNA fragmentation, MiaPaca. Format: cell-based, human. The following applies: 1 μM ABT-263, 48 h. The protocol:
as §2

The subject of another series is Colo-357 cells. As to the kind of experiment: Apoptotic cell death by DNA fragmentation, Colo-357. The following applies: 1 μM ABT-263, 48 h. In kind it is cell-based. The protocol: as §1
The next series deals with Mcl-1. The series can be described thus: Western blot analysis of Mcl-1 expression. In kind it is cell-based, human. The following applies: Jurkat and CEM with acquired ABT-263 resistance. From the text: For each sample, 1×10^7 cells were lysed as previously described. 23 Equal amounts of protein were separated on 5-13% SDS-PAGE depending on the molecular sizes of the proteins and blotted onto a nitrocellulose membrane (Amersham Biosciences, Little Chalfon, UK) as previously described. 23 The following antibodies were used: Bad, Bax, Bcl-xL, Bcl-w, XIAP from Cell Signaling Technology, Danvers, USA; Bcl-2 (sc-509) and Mcl-1 (sc-819) from Santa Cruz Biotechnology, Heidelberg, Germany; Tubulin and actin from Sigma, Saint Louis, USA.
(In general: In western blotting, separated proteins are transferred to a membrane and probed.)

In series [7] the test system is cervix adenocarcinoma cell line HeLa. As to the kind of experiment: Apoptotic cell death by DNA fragmentation, HeLa. Format: cell-based, human. The following applies: 1 μM ABT-263, 48 h. The procedure: as §2
Series [8] deals with proliferating normal peripheral blood T cells. As to the kind of experiment: Apoptotic cell death by DNA fragmentation, proliferating normal T cells. Format: cell-based. The following applies: human. The protocol: Normal T cells were isolated from peripheral blood of healthy donors and activated to proliferate as described in the Materials and Methods. The proliferating T cells were treated with different concentrations of ABT-263 in the absence or presence of wogonin as indicated. Apoptotic cell death was determined by DNA fragmentation. Results are presented as pooled data from four independent donors. (B) Proliferating normal T cells express higher levels of Mcl-1 and Bcl-2 than leukemic Jurkat and Molt-4 T cells. Total cell lysates of activated T cells from three healthy donors were compared with leukemic cells for the expression levels of Mcl-1, Bcl-2, Bcl-xL and Bcl-w. CDK6 is known to be over-expressed in many tumor cells and was used as a marker for malignant cells. Representative blots from two independent experiments are shown. […] Human platelets in 10% FCS were treated with different concentrations of ABT-263 in the absence or presence of wogonin as indicated. After 1 h treatment, apoptotic cell death was determine by staining with annexin V/FITC. Results are average of two independent assays.
Human peripheral blood T cells were prepared as described previously 23 and were more than 90% CD3 positive. For generation of proliferating T cells, freshly isolated T cells were cultured at 2×10^6 cells/ml and were activated with […] PHA overnight. Activated T cells were then washed three times and cultured for additional 5 days in the presence of 25 U/ml IL-2. Platelets were prepared as described in Vogler et al., 2011, Blood 117: 7145-54.
Wogonin (BIOTREND Chemicals AG, Wangen, Switzerland), apigenin, chrysin, luteolin and baicalein (Sigma, St. Louis, USA) were solved in dimethyl sulfoxide (DMSO; Roth, Karlsruhe, Germany) at a stock concentration of 50 mM. Cells were treated with different concentrations of different flavones or ABT-263 (Selleck Chemicals, Houston, USA) for 24 to 48 h. Apoptotic cell death was examined by analysis of DNA fragmentation as previously described 23 (Fas et al.,2006, Blood 108: 3700-6). […]

The test system of series [9] is Hodgkin lymphoma (HL) cell line KM-H2. As to the kind of experiment: Apoptotic cell death by DNA fragmentation, KM-H2. In kind it is cell-based, human. To be noted: 1 μM ABT-263, 48 h. The procedure:
as §2

Series [10] concerns prostatic cancer cell line PC3. As to the kind of experiment: Apoptotic cell death by DNA fragmentation, PC3. Format: cell-based, human. The following applies: 1 μM ABT-263, 48 h. The procedure:
as §2

Consider `CC1(C)CCC(c2ccc(Cl)cc2)=C(CN2CCN(c3ccc(C(=O)NS(=O)(=O)c4ccc(N[C@H](CCN5CCOCC5)CSc5ccccc5)c(S(=O)(=O)C(F)(F)F)c4)cc3)CC2)C1` [ABT-263, (R)-4-(4-((4′-chloro-4,4-dimethyl-3,4,5,6-tetrahydro-[1,1′-biphenyl]-2-yl)methyl)piperazin-1-yl)--N-((4-((4-morpholino-1-(phenylthio)butan-2-yl)amino)-3-((trifluoromethyl)sulfonyl)phenyl)sulfonyl)benzamide], for which the “sensitivity to ABT-263 after long-term exposure” value in series [1] and in series [4] was “resistant to ABT-263” throughout. Moreover, the cell death entry in series [2] is reported as “less than 5%”; in series [3] it was 10-20%; in series [5], 10-20%; in the series on melanoma cell line A375, 10-20%; in series [6] it was “less than 5%”; in the series on Colo-357 cells, “less than 5%”. For the same molecule, the cell death result in series [7], in [9] and in series [10] was “less than 5%” throughout. For the same molecule, the tumor response result with human ALL RS4;11 is on record as “complete tumor response rate”. Besides, the “tumor growth / tumor response” value in the series on CEM tumors is on record as “no significant inhibition of tumor growth”. Further, in the series on Mcl-1, the “Mcl-1 expression after long-term ABT-263 exposure” value is on record as “elevated Mcl-1 expression”. Moreover, the “sensitivity of proliferating normal T cells to ABT-263” value in series [8] was “higher resistance to ABT-263 compared to leukemic cells”.

These data come from patent publication US20160158189A1, “SENSITIZATION OF CANCER CELLS TO APOPTOSIS INDUCTION BY FLAVAGLINES AND 5-HYDROXY-FLAVONES” (DEUTSCHES KREBSFORSCHUNGSZENTRUM, priority 2013, published 2016).
